Test results from PubChem BioAssay (NCI).
Several values for one entry are separate records, joined by “and”; a condition that tells them apart may be missing. Identical values can stand only once.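 Cultured in 96-well plates, cells were exposed to test compound for 48 hours across five concentrations. The concentration for 50% growth inhibition is given as GI50. TGI: total growth inhibition.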

How the values were obtained:
Experiment in all cases: NCI tumour cell line growth inhibition, 48 h
MCF7 breast = tested on: MCF7 breast
MDA-MB-231 breast = tested on: MDA-MB-231 breast
XF 498 CNS = tested on: XF 498 CNS
SW-620 colon = tested on: SW-620 colon
UACC-62 melanoma = tested on: UACC-62 melanoma
LOX IMVI melanoma = tested on: LOX IMVI melanoma
SK-OV-3 ovarian = tested on: SK-OV-3 ovarian
HCC-2998 colon = tested on: HCC-2998 colon
DMS 273 small cell lung = tested on: DMS 273 small cell lung
LXFL 529 NSCLC = tested on: LXFL 529 NSCLC

Structure (SMILES) | TGI (MCF7 breast) | TGI (MDA-MB-231 breast) | TGI (XF 498 CNS) | TGI (SW-620 colon) | TGI (UACC-62 melanoma) | TGI (LOX IMVI melanoma) | TGI (SK-OV-3 ovarian) | TGI (HCC-2998 colon) | TGI (DMS 273 small cell lung) | GI50 (MCF7 breast) | GI50 (MDA-MB-231 breast) | GI50 (SW-620 colon) | GI50 (UACC-62 melanoma) | GI50 (LOX IMVI melanoma) | GI50 (SK-OV-3 ovarian) | GI50 (HCC-2998 colon) | TGI (LXFL 529 NSCLC)
COc1ccccc1C(=O)Nc1ccc(Cl)c(C(=O)OC(C)C)c1 | > 100 µM | > 100 µM | 54.7 µM | > 100 µM | > 63.4 µM | > 62.3 µM | > 100 µM | > 100 µM | > 100 µM | – | – | – | – | – | – | – | –
COc1ccccc1CNC(=O)/C=C/c1ccc(O)c(O)c1 | > 100 µM | > 100 µM | – | > 100 µM | > 100 µM | > 100 µM | > 100 µM | > 100 µM | – | > 100 µM | 22.6 µM | > 100 µM | 34.8 µM | 26.3 µM | 38.2 µM | 34.6 µM | –
CCCCc1n(Cc2ccc3ccccc3n2)cc[n+]1Cc1ccc2ccccc2c1 | 2.27 µM | 2.04 µM | – | 4.75 µM | 1.86 µM | 1.95 µM | 4.33 µM | 2.01 µM | – | 0.69 µM | 0.635 µM | 1.31 µM | 0.579 µM | 0.736 µM | 1.47 µM | 0.641 µM | –
COc1ccc(/C=C\c2cc(OC)c(OC)c(OC)c2)cc1N/C=C\C(=O)c1c[nH]c2ccccc12 | > 100 µM | 94.4 µM | – | > 100 µM | 64.2 µM | > 100 µM | > 100 µM | > 100 µM | – | < 0.01 µM | < 0.01 µM | < 0.01 µM | 4.38 µM | < 0.01 µM | < 0.01 µM | < 0.01 µM | –
CC[C@H](C)C(=O)O[C@H]1C[C@@H](C)C=C2C=C[C@H](C)[C@H](CC[C@@H]3C[C@@H](O)CC(=O)O3)[C@H]21 | > 100 µM | 3.5 µM and 1.51 µM | – | > 100 µM | 18.9 µM and 17.2 µM and > 30 µM | 21.3 µM and 6.82 µM and 7.71 µM | > 100 µM | > 100 µM | > 30 µM | 32.1 µM and 14.9 µM | 0.495 µM and 0.31 µM | 10 µM and 10.1 µM | 2.83 µM and 2.59 µM | 0.932 µM | 7.58 µM and 6.68 µM | 26.3 µM and 25.1 µM | > 30 µM
COc1cc2ccnc(-c3n[nH]c4cc(OC)c(OC)cc34)c2cc1OC | – | – | > 100 µM | > 100 µM | > 100 µM | > 100 µM | > 100 µM | > 100 µM | > 100 µM | – | – | – | – | – | – | – | > 100 µM
COc1ccc(/C=N/C2=NNC(C)(c3ccccc3O)N2C(Cc2c[nH]c3ccccc23)C(=O)O)cc1 (stereo unspecified) | 10.9 µM | 8.89 µM | – | 12.1 µM | 5.53 µM | 10.1 µM | 14.5 µM | 13.3 µM | – | 2.23 µM | 1.89 µM | 3.17 µM | 1.86 µM | 2.68 µM | 2.85 µM | 3.53 µM | –
CC(=O)Nc1ccc(S(=O)(=O)N/N=C(\C)CN2C(=O)c3ccccc3C2=O)cc1 | – | – | – | > 100 µM | > 100 µM | – | > 100 µM | > 100 µM | > 100 µM | – | – | – | – | – | – | – | > 100 µM
CCN1Cc2c(/C=C/c3ccccc3)nc3ccc(OC)cc3c2N(c2cccc(Cl)c2)C1 | 3.75 µM | 3.69 µM | – | 3.29 µM | 3.06 µM | 3.51 µM | 4.4 µM | 3.14 µM | – | 1.65 µM | 1.75 µM | 1.67 µM | 1.49 µM | 1.7 µM | 1.88 µM | 1.64 µM | –
CCN(CC)CCC(CNc1c(C)cnc2cc(Cl)ccc12)c1ccc(Cl)c(Cl)c1 (stereo unspecified) | 4.15 µM | 7.06 µM | – | 7 µM | 4.77 µM | 3.14 µM | 28 µM | 3.36 µM | – | 1.79 µM | 2.43 µM | 2.14 µM | 2.18 µM | 1.59 µM | 14.4 µM | 1.77 µM | –
CC(C(=O)c1ccc(O)cc1)C1(O)C(=O)Nc2c(Cl)cc(Cl)cc21 (stereo unspecified) | – | – | 47.8 µM | > 100 µM | 21.7 µM | > 67.8 µM | > 100 µM | > 100 µM | > 100 µM | – | – | – | – | – | – | – | > 93.7 µM
COc1cc(NC(=O)c2cc3ccccc3cc2O)c(OC)cc1Cl | 7.13 µM | 4.79 µM | – | > 34.5 µM | 5.65 µM | > 100 µM | 3.94 µM | 7.72 µM | – | 1.93 µM | 1.57 µM | 3.08 µM | 1.35 µM | 2.47 µM | 1.39 µM | 2.68 µM | –
CCN(CC)CCOc1ccccc1-n1c(C)ccc1-c1ccccc1 | 26.7 µM | 20.7 µM | – | 31.8 µM | 30.6 µM | 34.5 µM | 31.4 µM | 28.5 µM | – | 13 µM | 6.54 µM | 15.2 µM | 15.8 µM | 17.5 µM | 17.3 µM | 13.9 µM | –
O=C1c2ccccc2-c2c1c1ccc3ccccc3c1n2-c1ccccc1 | > 100 µM | 47.3 µM | – | > 100 µM | 44.2 µM | > 100 µM | 54.1 µM | 94.4 µM | – | 15.6 µM | 22.3 µM | 59.5 µM | 20.4 µM | 39 µM | 26.2 µM | 30.5 µM | –
COc1ccc(-n2nc(C(=O)NCC(=O)Nc3nc4cc(OC)ccc4s3)c3ccccc3c2=O)cc1 | > 32 µM | 4.46 µM | – | > 100 µM | – | 1.97 µM | 4.93 µM | 7.89 µM | – | 1.35 µM | 1.49 µM | 0.66 µM | 1.76 µM | 0.413 µM | 1.83 µM | 0.589 µM | –
